Laboratory results reported in patent US10179770B2, “Quinolines derivatives as novel anticancer agents” (GENOSCIENCE PHARMA, priority 2013, dated 2019).
Counter-ions that a name gives are not always drawn. Like-named read-outs stand apart in the source and are kept apart here.

Tests used:
[1] = tested on: patient derived acute myeloid leukemia (AML) cell lines; assay: Cell growth inhibition assay, patient derived AML cells; type: cell-based, human; conditions: 48 h
Method: The patient derived acute myeloid leukemia (AML) cells were obtained after written informed consent under the Institut Paoli Calmette (IPC) institutional review board approval and under the strict compliance of the Helsinki declaration on medical research involving human subjects. […] Each compound was added at different concentrations (combinations of six concentrations) to each well, and cell cultures were incubated for 48 h. Vehicle (H2O) was used as a control, and all compounds were tested in a constant percentage of vehicle. Cell outgrowth was measured using the CellTiter-Glo luminescent cell viability assay as described by the manufacturer (Promega, Ref G7571 Madison, Wis., USA) using a Centro (Berthold, France) plate reader. In each experiment, each point represents the average of triplicates in cell culture. The experimental data are analyzed using a computer program, Graphpad Prism (GraphPad Software, Inc.

[2] = tested on: PBMC Healthy voluntary donor; assay: Cell growth inhibition assay, PBMC of healthy donors; type: cell-based, human; conditions: PBMC Healthy voluntary donor 1
Method: Each compound was added at different concentrations (combinations of six concentrations) to each well, and cell cultures were incubated for 48 h. Vehicle (H2O) was used as a control, and all compounds were tested in a constant percentage of vehicle. Cell outgrowth was measured using the CellTiter-Glo luminescent cell viability assay as described by the manufacturer (Promega, Ref G7571 Madison, Wis., USA) using a Centro (Berthold, France) plate reader. In each experiment, each point represents the average of triplicates in cell culture. The experimental data are analyzed using a computer program, Graphpad Prism (GraphPad Software, Inc.

[3] = tested on: A-375; assay: EC50 determination in cancer cell lines; type: cell-based, human
Method: (§1) Compounds were added at different concentrations to each well, and cell cultures were incubated for 72 h. Vehicle (DMSO or H2O) was used as a control, and all compounds were tested in a constant percentage of vehicle. Cell outgrowth was measured using for adherent cells CellTiter […] Aqueous One Solution Cell Proliferation Assay (Promega) and for cell suspension, Sulforhodamine B colorimetric assay as described in Vichai et al. (Vichai, V. and Kirtikara, K. Nat. Protoc. 2006 (1) 1112-1116). Absorbance was measured using an Infinite F200 Pro or Sunrise TECAN plate reader.
(§2) The human melanoma cell line A375, colorectal carcinoma cell line HCT-116, hepatocellular carcinoma cell line HepG2 were cultured in Dulbecco's modified Eagle's medium supplemented with 10% fetal bovine serum and 1% Penicillin-Streptomycin. The human melanoma cell lines SK-MEL-28 and SK-MEL-5 were cultured in Minimum Essential Medium. The colorectal carcinoma cell lines HT-29 and Colo205 were respectively cultured in Mc Coy's and RPMI media. The human leukemia cell lines MV4-11 and KG-1 were cultured in Iscove's Modified Dulbecco's Media. The human leukemia cell line MOLM-14 was cultured in Minimum Essential Medium Alpha Medium supplemented with 10% Fetal Bovine Serum and 1% Penicillin-Streptomycin All culture media were supplemented with 10% fetal bovine serum and 1% Penicillin-Streptomycin except for MV4-11 cell line 20% fetal bovine serum and 1% Penicillin-Streptomycin. All the cell lines were maintained at 37° C. with 5% C02.
(§3) Briefly, adherent cells, A375, HCT-116, HepG2, SK-MEL-28, SK-MEL-5, HT-29 and Colo205 cells were respectively plated at 800, 5,000, 7,000, 2,500, 3,000-5,000, 5,000 or 5,000 cells per well onto 96-well plates in 90 μL of media per well and were allowed to grow overnight before the assay. For MV4-11 and KG-1 cells that grow in suspension, 40,000-60,000 cells were plated onto 96-well plates immediately before the assay. MOLM-14 cell line, that grow in suspension, 30,000 cells were plated onto 96-well plates immediately before the assay.
(§4) The cell growth measure was the same as described in example 51.
(§5) The experimental data are analyzed using a computer program, Graphpad Prism (GraphPad Software, Inc. La Jolla, Calif.) and EC50 values were determined as the dose of compound required to reduce absorbance values to 50% of the signal obtained for vehicle treated cell cultures and were a mean of at least two independent experiments except for EC50 values with (*) where […].

[4] = tested on: HepG2; assay: EC50 determination in cancer cell lines; type: cell-based, human
Method: as §1, §2, §3, §4, §5

[5] = tested on: HCT-116; assay: EC50 determination in cancer cell lines; type: cell-based, human
Method: as §1, §2
Briefly, adherent cells, A375, HCT-116, HepG2, SK-MEL-28, SK-MEL-5, HT-29 and Colo205 cells were respectively plated at 800, 5,000, 7,000, 2,500, 3,000-5,000, 5,000 or 5,000 cells per well onto 96-well plates in 90 μL of media per well and were allowed to grow overnight before the assay. For MV4-11 and KG-1 cells that grow in suspension, 40,000-60,000 cells were plated onto 96-well plates immediately before the assay. MOLM-14 cell line, that grow in suspension, 30,000 cells were plated onto 96-well plates immediately before the assay. […]
as §5

[6] = tested on: MOLM-14; assay: EC50 determination in cancer cell lines; type: cell-based; conditions: Homo sapiens, 72 h
Method: as §1, §2, §3, §4, §5

[7] = tested on: A375; assay: Cell proliferation assay at 10 μM; type: cell-based, human; conditions: Homo sapiens, read-out: Cell viability observed at 10 μM
Method: (§6) The human melanoma cell line A375 and colorectal carcinoma cell line HCT-116 were cultured in Dulbecco's modified Eagle's medium supplemented with 10% fetal bovine serum and 1% Penicillin-Streptomycin. The human leukemia cell line MOLM-14 was cultured in Minimum Essential Medium Alpha Medium supplemented with 10% Fetal Bovine Serum and 1% Penicillin-Streptomycin. All the cell lines were maintained at 37° C. with 5% CO2.
(§7) Briefly, adherent cells, A375 and HCT-116 cells were respectively plated at 800 or 5,000 cells per well onto 96-well plates in 90 μL of media per well and were allowed to grow overnight before the assay.
as §1
(§8) In each experiment, each point represents the average of two replicates in cell culture.
(§9) Results are presented in Table 1 below for concentrations of 10 μM of tested compounds.

[8] = tested on: HCT-116; assay: Cell proliferation assay at 10 μM; type: cell-based; conditions: Homo sapiens, HCT-116, 72 h, read-out: Cell viability observed at 10 μM
Method: as §6, §7, §1, §8, §9

[9] = tested on: MOLM-14; assay: Cell proliferation assay at 10 μM; type: cell-based, human; conditions: Homo sapiens, read-out: Cell viability observed at 10 μM
Method: as §6
For MOLM-14 cell line, which grows in suspension, 30,000 cells were plated onto 96-well plates immediately before the assay.
as §1, §8, §9

SMILES | EC50 ([3]; Homo sapiens, A-375, 72 h) [µM] | EC50 ([4]; Homo sapiens, HepG2, 72 h) [µM] | EC50 ([5]; Homo sapiens, HCT-116, 72 h) [µM] | EC50 [6] [µM] | viability at 10 µM ([7]; A-375, 72 h) [%] | viability at 10 µM [8] [%] | viability at 10 µM ([9]; MOLM-14, 72 h) [%] | also measured
Nc1ccn([C@@H]2O[C@H](CO)[C@@H](O)[C@@H]2O)c(=O)n1 [AraC, cytosine arabinoside, reference compound] |  |  |  |  |  |  |  | EC50 ([1]; Patient 3, subtype Tri8): 44 µM; EC50 ([1]; Patient 8, subtype FLT3−): 51 µM; EC50 ([1]; Patient 9, subtype FLT3+): 21 µM; EC50 ([1]; Patient 10, subtype Inv 3): 36 µM; EC50 ([1]; Patient 12, subtype 5 & 7): > 40 µM; EC50 ([1]; Patient 13, subtype MLL): 3 µM; EC50 ([1]; Patient 16, subtype Inv 3): 11 µM; EC50 [2]: 13 µM
CCN(CC)C1CCN(c2cc(-c3ccccc3)nc3cc(Cl)ccc23)CC1 [II-3, 7-chloro-2-phenyl-4-(4-N,N-diethylamino-piperidin-1-yl)quinoline] | 3 | 8 | 4 | 5 |  |  |  | 
CCN(CC)C1CCN(c2cc(-c3ccc(-c4ccccc4)cc3)nc3ccccc23)CC1 [IX-2, 2-(1,1′-biphenyl)-4-yl-4-(4-N,N-diethylamino-piperidin-1-yl)quinoline dihydrochloride] | 3 | 13 | 4 | 4 | < 20 | < 20 | < 20 | 
CCN(CC)C1CCN(c2cc(-c3ccc4ccccc4c3)nc3ccccc23)CC1 [VI-5, 2-(2-naphtyl)-4-(4-N,N-diethylamino-piperidin-1-yl)quinoline] | 4 | 11 | 6 | 5 |  |  |  | 
CN(C)CCCNc1cc(-c2ccccc2)nc2ccccc12 [XL-2, N^1,N^1-dimethyl-N^3-(2-phenylquinoline-4-yl)propane-1,3-diamine trifluoroacetate salt] | 3 | 17 | 5 | 3 |  |  |  | viability at 10 µM ([7]; A-375, A375, 10 μM, 72 h, % of cell viability remaining): < 20%; viability at 10 µM ([8]; HCT-116, 10 μM, 72 h, % of cell viability remaining): 20 to 40%; viability at 10 µM ([9]; MOLM-14, 10 μM, 72 h, % of cell viability remaining): < 20%
CN(C)CCCNc1cc(-c2ccccc2)nc2ccccc12 [XLI-1, N^1,N^1-dimethyl-N^3-(2-phenylquinoline-4-yl)propane-1,3-diamine] |  |  |  |  |  |  |  | EC50 ([3]; 72 h): 2 µM; EC50 ([4]; 72 h): 10 µM; EC50 ([5]; 72 h): 4 µM
CN(C)CCCNc1cc(-c2ccc3ccccc3c2)nc2ccccc12 [XLII-2, N^1,N^1-dimethyl-N^3-[2-(naphtalen-2-yl)quinoline-4-yl]propane-1,3-diamine hydrochloride salt] | 3 | 19 | 11 | 4 | < 20 | < 20 | < 20 | 
CN(C)CCCNCc1cc(-c2ccccc2)nc2cc(Cl)ccc12 [XLIV-1, N^1,N^1-dimethyl-N^3-(7-chloro-2-phenylquinoline-4-ylmethyl)-propane-1,3-diamine] | 4 | 10 | 6 | 6 |  |  |  | 
COc1ccc(-c2cc(N3CCC(NC(C)(C)C)CC3)c3ccccc3n2)cc1 [XV-8, 2-(4-methoxy-phenyl)-4-(4-N-tert-butylamino-piperidin-1-yl)quinoline dihydrochloride] | 10 | 27 | 17 | 3 | 20 to 40 | > 80 | < 20 | 
CCN(CC)C1CCN(C(C)c2cc(-c3ccccc3)nc3cc(Cl)ccc23)CC1 (stereo not drawn) [XVI-4, 7-Chloro-2-phenyl-4-{1-[4-(N,N-diethylamino)-piperidin-1-yl]-eth-1-yl}quinoline dihydrochloride] | 4 | 13 | 6 | 6 | < 20 | < 20 | < 20 | 
CCN(CC)C1CCN(Cc2cc(-c3ccccc3)nc3cc(Cl)ccc23)CC1 [XVII-6, 7-Chloro-2-phenyl-4-[4-(N,N-diethylamino)-piperidin-1-ylmethyl]quinoline dihydrochloride] | 3 | 8 | 4 | 5 | < 20 | < 20 | < 20 | 
CC(c1cc(-c2ccccc2)nc2ccccc12)N1CCC(NC(C)(C)C)CC1 (stereo not drawn) [XXIII-2, 2-phenyl-4-{1-[4-N-tert-butylamino-piperidinyl]-eth-1-yl}quinoline dihydrochloride] |  |  |  | 6 | < 20 | 20 to 40 | < 20 | EC50 ([3]; Homo sapiens, 72 h): 8 µM; EC50 ([4]; Homo sapiens, 72 h): 18 µM; EC50 ([5]; Homo sapiens, 72 h): 11 µM
CN(C)CCN(C)c1cc(-c2ccc3ccccc3c2)nc2ccccc12 [XXXVII-2, N^1,N^1,N^2-trimethyl-N^2-(2-naphthalen-2-yl-quinoline-4-yl)-ethane-1,2-diamine hydrochloride salt] |  |  |  |  | 40 to 60 | > 80 | 40 to 60 | 
CN(C)CCN(C)Cc1cc(-c2ccccc2)nc2cc(Cl)ccc12 [XXXVIII-2, N^1,N^1,N^2-trimethyl-N^2-(2-phenyl-7-chloro-quinoline-4-ylmethyl)-ethane-1,2-diamine hydrochloride salt] |  |  |  |  | < 20 | < 20 | 40 to 60 | 
